Tested on: Root Knot Nematodes
Test: Nematicide assay: control of Root Knot Nematode galling on host plant roots
Type: in vivo
Settings: drip application, 4-day-old host plant, assessed after 8 days; for pest or weed control at 500 ppm / pest or weed control at 100 ppm: 192 h, read-out: control efficacy (decrease of nematode gall formation on roots compared to the inoculated control)
Experimental: Test compounds were formulated using a solution containing 25% acetone and 75% water. The formulated compounds were applied in 330 μl of liquid through a drip applicator that was positioned above the top of each test unit. Test compounds were applied at 500 ppm and 100 ppm and each test was replicated three times. For evaluating control of Root Knot Nematodes the test unit consisted of a small open container with a 4-day-old host plant inside. The formulated compounds were dripped into the container and the nematodes were applied following the compound's application. The test units were held for 8 days in a growth chamber at 29.4° C. or 85 F. Root invasion by the nematodes was then visually assessed based on presence or absence of galls on the roots.

Structure (SMILES)	pest or weed control at 500 ppm (500 ppm) [%]	control efficacy (decrease of nematode gall formation on roots compared to the inoculated control) (500 ppm) [%]	also measured
O=C(NCCn1nc(C(F)(F)F)n(CC(F)(F)F)c1=O)c1ccccc1C(F)(F)F [Compound 1]	100		
O=C(NCCn1nc(C(F)(F)F)n(C2CC2)c1=O)c1ccccc1C(F)(F)F [Compound 2]	100		
CC(C)n1c(C(F)F)nn(CCNC(=O)c2ccccc2C(F)(F)F)c1=O [Compound 9]	100		
CC(C)(C)n1c(C(F)(F)F)nn(CCNC(=O)c2ccccc2C(F)(F)F)c1=O [Compound 10, N-[2-[4-(1,1-Dimethylethyl)-4,5-dihydro-5-oxo-3-(trifluoromethyl)-1H-1,2,4-triazol-1-yl]ethyl]-2-(trifluoromethyl)benzamide]	100		
CC(C)n1c(C(F)(F)F)nn(CCNC(=O)c2ccccc2C(F)(F)F)c1=O [Compound 11]	100		
CCn1c(C(F)(F)F)nn(CCNC(=O)c2ccccc2C(F)(F)F)c1=O [Compound 12]	100		
Cn1c(C(F)(F)F)nn(CCNC(=O)c2ccccc2C(F)(F)F)c1=O [Compound 14, N-[2-[4,5-Dihydro-4-methyl-5-oxo-3-(trifluoromethyl)-1H-1,2,4-triazol-1-yl]ethyl]-2-(trifluoromethyl)benzamide]	100		
O=C(NCCn1nc(C(F)(F)F)n(CC(F)(F)F)c1=O)c1ccccc1Cl [Compound 30]	100		
CC(C)n1c(C(F)(F)F)nn(CCNC(=O)c2ccccc2Cl)c1=O [Compound 31]	100		
O=C(NCCn1nc(C(F)(F)F)n(CC2CC2)c1=O)c1ccccc1C(F)(F)F [Compound 32, N-[2-[4-(Cyclopropylmethyl)-4,5-dihydro-5-oxo-3-(trifluoromethyl)-1H-1,2,4-triazol-1-yl]ethyl]-2-(trifluoromethyl)benzamide]	100		
CC(C)(C)n1c(C(F)(F)F)nn(CCNC(=O)c2ccccc2Cl)c1=O [Compound 38, 2-Chloro-N-[2-[4-(1,1-dimethylethyl)-4,5-dihydro-5-oxo-3-(trifluoromethyl)-1H-1,2,4-triazol-1-yl]ethyl]benzamide]	100		
CC1(n2c(C(F)(F)F)nn(CCNC(=O)c3ccccc3C(F)(F)F)c2=O)CC1 [Compound 45]	100		
CC(C)(C)n1c(C(F)(F)F)nn(CCNC(=O)c2ccccc2Br)c1=O [Compound 50, 2-Bromo-N-[2-[4-(1,1-dimethylethyl)-4,5-dihydro-5-oxo-3-(trifluoromethyl)-1H-1,2,4-triazol-1-yl]ethyl]benzamide]	100		
O=C(NCCn1nc(C(F)(F)F)n(C2CC2)c1=O)c1ccccc1Cl [Compound 59]	100		
CC(C)(C)n1c(C(F)(F)F)nn(CCNC(=O)c2cccnc2Cl)c1=O [Compound 92, 2-Chloro-N-[2-[4-(1,1-dimethylethyl)-4,5-dihydro-5-oxo-3-(trifluoromethyl)-1H-1,2,4-triazol-1-yl]ethyl]-3-pyridinecarboxamide]	100		pest or weed control at 100 ppm (100 ppm): 100%
CC(C)(C)n1c(C(F)(F)F)nn(CCNC(=O)c2cccnc2C(F)(F)F)c1=O [Compound 93]	100		
CC(C)(C)n1c(C(F)(F)F)nn(CCNC(=O)c2c(F)cccc2C(F)(F)F)c1=O [Compound 128]		100	

Structure (SMILES)	pest or weed control at 500 ppm (500 ppm) [%]	control efficacy (decrease of nematode gall formation on roots compared to the inoculated control) (500 ppm) [%]	also measured
CC(C)(n1c(C(F)(F)F)nn(CCNC(=O)c2ccccc2Br)c1=O)C(F)(F)F [Compound 133]		100	control efficacy (decrease of nematode gall formation on roots compared to the inoculated control) (100 ppm): 100%
Cc1ccccc1C(=O)NCCn1nc(C(F)(F)F)n(C(C)(C)C(F)(F)F)c1=O [Compound 135]		100	
O=C(NCCn1nc(C(F)(F)F)n(C2(C(F)(F)F)CCC2)c1=O)c1ccccc1C(F)(F)F [Compound 139]		100	
O=C(NCCn1nc(C(F)(F)F)n(C2(C(F)(F)F)CCC2)c1=O)c1ccccc1Br [Compound 142]		100	
O=C(NCCn1nc(C(F)(F)F)n(C2CC(F)(F)C2)c1=O)c1ccccc1Br [Compound 143]		100	
O=C(NCCn1nc(C(F)(F)F)n(C2CC(F)(F)C2)c1=O)c1ccccc1C(F)(F)F [Compound 145]		100	control efficacy (decrease of nematode gall formation on roots compared to the inoculated control) (100 ppm): 100%
O=C(NCCn1nc(C(F)(F)F)n(C2CC(F)(F)C2)c1=O)c1ccccc1Cl [Compound 148]		100	control efficacy (decrease of nematode gall formation on roots compared to the inoculated control) (100 ppm): 100%
O=C(NCCn1nc(C(F)(F)F)n(C2(C(F)(F)F)CCC2)c1=O)c1ccccc1Cl [Compound 149]		100	
CC(C)(n1c(C(F)(F)F)nn(CCNC(=O)c2ncccc2C(F)(F)F)c1=O)C(F)(F)F [Compound 160]		100	
CC(C)(n1c(C(F)(F)F)nn(CCNC(=O)c2cccnc2C(F)(F)F)c1=O)C(F)(F)F [Compound 165]		100	control efficacy (decrease of nematode gall formation on roots compared to the inoculated control) (100 ppm): 100%
CC(n1c(C(F)(F)F)nn(CCNC(=O)c2cccnc2Cl)c1=O)C(F)(F)F (centres unmarked) [Compound 166]		100	
O=C(NCCn1nc(C(F)(F)F)n(C2(C(F)(F)F)CCC2)c1=O)c1cccnc1C(F)(F)F [Compound 169]	100		
O=C(NCCn1nc(C(F)(F)F)n(C2(C(F)(F)F)CCC2)c1=O)c1cccnc1Cl [Compound 170]	100		
CC(C)(n1c(C(F)(F)F)nn(CCNC(=O)c2cccnc2Cl)c1=O)C(F)(F)F [Compound 171]		100	control efficacy (decrease of nematode gall formation on roots compared to the inoculated control) (100 ppm): 100%
O=C(NCCn1nc(C(F)(F)F)n(C2CC(F)(F)C2)c1=O)c1cccnc1C(F)(F)F [Compound 173]	100		
CC(n1c(C(F)(F)F)nn(CCNC(=O)c2cccnc2C(F)(F)F)c1=O)C(F)(F)F (centres unmarked) [Compound 175]		100	
CC(C)(n1c(C(F)(F)F)nn(CCNC(=O)c2ccccc2C(F)(F)F)c1=O)C(F)(F)F [Compound 179, N-[2-[4,5-Dihydro-5-oxo-4-(2,2,2-trifluoro-1,1-dimethylethyl)-3-(trifluoromethyl)-1H-1,2,4-triazol-1-yl]ethyl]-2-(trifluoromethyl)benzamide]	100		pest or weed control at 100 ppm (100 ppm): 100%

— US20230278966A1, “TRIAZOLONE COMPOUNDS FOR CONTROLLING INVERTEBRATE PESTS” (FMC Corporation, priority 2020, published 2023)
